According to ChEMBL document CHEMBL1201862, “PubChem BioAssay data set” (2004):
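Method: 48-hour compound exposure of cells in 96-well plates, five concentrations, linear interpolation of endpoints. GI50 is the concentration that inhibits growth by half.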 Active and inactive are the calls of the source. Rule as the data show it: active = GI50 up to about 1.1 µM and inactive = higher.

Key:
Assay in all cases: DTP human tumour cell line panel, 48 h
[1] = system: UACC-62
[2] = system: COLO 205
[3] = system: SK-OV-3
[4] = system: SK-MEL-2
[5] = system: CAKI-1
[6] = system: U-251
[7] = system: RPMI-8226
[8] = system: HL-60
[9] = system: KM12
[10] = system: OVCAR-4
[11] = system: HCT-15
[12] = system: HOP-92
[13] = system: SNB-19
[14] = system: ACHN
[15] = system: SK-MEL-5
[16] = system: UACC-257
[17] = system: OVCAR-5
[18] = system: OVCAR-8
[19] = system: SK-MEL-28
[20] = system: PC-3

**Q.** `CCC1C(=O)OCc2c1cc1n(c2=O)CCC12OCCO2` (stereo not given) was tested. Which GI50 [1] did it give?
**A.** > 100 µM (inactive)

**Q.** What about the GI50 [2] of the same molecule?
**A.** > 100 µM (inactive)

**Q.** What about the GI50 [3] of the same molecule?
**A.** > 100 µM (inactive)

**Q.** What about the GI50 [4] of the same molecule?
**A.** > 100 µM (inactive)

**Q.** What about the GI50 [5] of the same molecule?
**A.** > 100 µM (inactive)

**Q.** What about the GI50 [6] of the same molecule?
**A.** > 100 µM (inactive)

**Q.** What about the GI50 [7] of the same molecule?
**A.** > 100 µM (inactive)

**Q.** And the GI50 [8]?
**A.** > 100 µM (inactive)

**Q.** What about the GI50 [9] of the same molecule?
**A.** > 100 µM (inactive)

**Q.** What about the GI50 [10] of the same molecule?
**A.** > 100 µM (inactive)

**Q.** What about the GI50 [11] of the same molecule?
**A.** > 100 µM

**Q.** And the GI50 [12]?
**A.** > 100 µM (inactive)

**Q.** And the GI50 [13]?
**A.** > 100 µM (inactive)

**Q.** What about the GI50 [14] of the same molecule?
**A.** > 100 µM (inactive)

**Q.** And the GI50 [15]?
**A.** > 100 µM (inactive)

**Q.** What about the GI50 [16] of the same molecule?
**A.** > 100 µM (inactive)

**Q.** What about the GI50 [17] of the same molecule?
**A.** > 100 µM (inactive)

**Q.** What about the GI50 [18] of the same molecule?
**A.** > 100 µM (inactive)

**Q.** What about the GI50 [19] of the same molecule?
**A.** > 100 µM (inactive)

**Q.** Which results are given for `N#CC(C(=O)C(=O)NCCCNC(=O)C(=O)C(C#N)c1ccccc1)c1ccccc1` (stereo not given)?
**A.** GI50 [1]: > 100 µM (inactive); GI50 [2]: > 100 µM (inactive); GI50 [3]: > 100 µM (inactive); GI50 [4]: > 100 µM (inactive); GI50 [5]: 0.0167 µM (active); GI50 [6]: > 100 µM (inactive); GI50 [7]: > 100 µM (inactive); GI50 [8]: > 100 µM (inactive); GI50 [9]: > 100 µM (inactive); GI50 [10]: > 100 µM (inactive); GI50 [11]: > 100 µM; GI50 [12]: > 100 µM (inactive); GI50 [13]: 5.33 µM (inactive); GI50 [14]: > 100 µM (inactive); GI50 [15]: > 100 µM (inactive); GI50 [16]: > 100 µM (inactive); GI50 [17]: > 100 µM (inactive); GI50 [18]: > 100 µM (inactive); GI50 [19]: > 100 µM (inactive)

**Q.** For `O=[N+]([O-])c1cc(I)cc(/C=N/NS(=O)(=O)c2ccc(F)cc2)c1O`, which GI50 [1] is on record?
**A.** 20.3 µM (inactive)

**Q.** And the GI50 [2]?
**A.** 18.3 µM (inactive)

**Q.** And the GI50 [3]?
**A.** 27.4 µM (inactive)

**Q.** What about the GI50 [4] of the same molecule?
**A.** 18 µM (inactive)

**Q.** What about the GI50 [5] of the same molecule?
**A.** 26.2 µM (inactive)

**Q.** And the GI50 [6]?
**A.** 22.4 µM (inactive)

**Q.** And the GI50 [7]?
**A.** 22.1 µM (inactive)

**Q.** What about the GI50 [8] of the same molecule?
**A.** 28.4 µM (inactive)

**Q.** What about the GI50 [9] of the same molecule?
**A.** 25.5 µM (inactive)

**Q.** What about the GI50 [10] of the same molecule?
**A.** 38.5 µM (inactive)

**Q.** What about the GI50 [11] of the same molecule?
**A.** 27.3 µM

**Q.** And the GI50 [12]?
**A.** 18.3 µM (inactive)

**Q.** And the GI50 [13]?
**A.** 31 µM (inactive)

**Q.** What about the GI50 [14] of the same molecule?
**A.** 30.7 µM (inactive)

**Q.** What about the GI50 [15] of the same molecule?
**A.** 22.5 µM (inactive)

**Q.** What about the GI50 [16] of the same molecule?
**A.** 25.2 µM (inactive)

**Q.** What about the GI50 [17] of the same molecule?
**A.** 39 µM (inactive)

**Q.** And the GI50 [18]?
**A.** 23.6 µM (inactive)

**Q.** What about the GI50 [19] of the same molecule?
**A.** 29.4 µM (inactive)

**Q.** What does the source list for `O=C(O)C1C2CCC(O2)C1C(=O)Nc1cccc2cccnc12` (stereo not given)?
**A.** GI50 [1]: > 100 µM (inactive); GI50 [3]: > 100 µM (inactive); GI50 [4]: > 100 µM (inactive); GI50 [5]: > 100 µM (inactive); GI50 [20]: > 100 µM (inactive); GI50 [6]: > 100 µM (inactive); GI50 [7]: > 100 µM (inactive); GI50 [9]: > 100 µM (inactive); GI50 [10]: > 100 µM (inactive); GI50 [11]: > 100 µM; GI50 [13]: > 100 µM (inactive); GI50 [14]: > 100 µM (inactive); GI50 [16]: > 100 µM (inactive); GI50 [17]: > 100 µM (inactive); GI50 [19]: > 100 µM (inactive)

**Q.** How did the GI50 [1] turn out when `Cc1ccc(S(=O)(=O)C2c3nc4ccccc4cc3-c3nc4ccccc4nc32)cc1` (stereo not given) was run?
**A.** > 100 µM (inactive)

**Q.** And the GI50 [2]?
**A.** > 100 µM (inactive)

**Q.** What about the GI50 [3] of the same molecule?
**A.** 0.693 µM (active)

**Q.** And the GI50 [4]?
**A.** > 100 µM (inactive)

**Q.** What about the GI50 [5] of the same molecule?
**A.** > 100 µM (inactive)

**Q.** And the GI50 [6]?
**A.** > 100 µM (inactive)

**Q.** What about the GI50 [7] of the same molecule?
**A.** > 100 µM (inactive)

**Q.** What about the GI50 [8] of the same molecule?
**A.** > 100 µM (inactive)

**Q.** And the GI50 [9]?
**A.** > 100 µM (inactive)

**Q.** And the GI50 [10]?
**A.** > 100 µM (inactive)

**Q.** And the GI50 [11]?
**A.** > 100 µM

**Q.** What about the GI50 [12] of the same molecule?
**A.** > 100 µM (inactive)

**Q.** And the GI50 [13]?
**A.** > 100 µM (inactive)

**Q.** And the GI50 [14]?
**A.** > 100 µM (inactive)

**Q.** And the GI50 [15]?
**A.** 51.8 µM (inactive)

**Q.** What about the GI50 [16] of the same molecule?
**A.** > 100 µM (inactive)

**Q.** And the GI50 [17]?
**A.** > 100 µM (inactive)

**Q.** And the GI50 [18]?
**A.** > 100 µM (inactive)

**Q.** What about the GI50 [19] of the same molecule?
**A.** > 100 µM (inactive)

**Q.** How did the GI50 [1] turn out when `CC(C)(C)CC(C)(C)c1ccc(OCCOCC[N+](C)(C)Cc2ccccc2)cc1` [BENZETHONIUM CHLORIDE] was run?
**A.** 1.36 µM (inactive)

**Q.** And the GI50 [2]?
**A.** 1.49 µM (inactive)

**Q.** And the GI50 [3]?
**A.** 7.43 µM (inactive)

**Q.** And the GI50 [4]?
**A.** 2.06 µM (inactive)

**Q.** And the GI50 [5]?
**A.** 10.1 µM (inactive)

**Q.** And the GI50 [6]?
**A.** 1.54 µM (inactive)

**Q.** What about the GI50 [7] of the same molecule?
**A.** 1.29 µM (inactive)

**Q.** And the GI50 [8]?
**A.** 0.883 µM (active)

**Q.** And the GI50 [9]?
**A.** 1.61 µM (inactive)

**Q.** And the GI50 [10]?
**A.** 2.06 µM (inactive)

**Q.** What about the GI50 [11] of the same molecule?
**A.** 20.5 µM

**Q.** And the GI50 [12]?
**A.** 1.88 µM (inactive)

**Q.** What about the GI50 [13] of the same molecule?
**A.** 3.1 µM (inactive)

**Q.** And the GI50 [14]?
**A.** 11.6 µM (inactive)

**Q.** What about the GI50 [15] of the same molecule?
**A.** 1.39 µM (inactive)

**Q.** And the GI50 [16]?
**A.** 1.45 µM (inactive)

**Q.** What about the GI50 [17] of the same molecule?
**A.** 6.17 µM (inactive)

**Q.** And the GI50 [18]?
**A.** 3.19 µM (inactive)

**Q.** What about the GI50 [19] of the same molecule?
**A.** 1.86 µM (inactive)
